# Test results as given in patent US20250136570A1 (Tango Therapeutics, Inc., priority 2021, published 2025).
# What was measured:
# Recombinant HDAC1 = Recombinant HDAC1 (Homo sapiens (Human), UniProt Q13547); test: HDAC1 inhibition, Fluor de Lys fluorescent enzyme assay; format: biochemical; conditions: 3 hours pre-incubation at room temp; 6 nM enzyme; 16 μM Fluor de Lys substrate; duplicate
# Source text: (§1) Recombinant HDAC1 (cat #: 50051) and HDAC3/NCor2 (cat #: 50003) enzymes were purchased from BPS Bioscience (San Diego, CA, US). Assay reagents for the detection of HDAC enzyme activity (Fluor de Lys®—Green substrate and Developer kits) were purchased from Enzo Life Science (Farmingdale, NY, US). Plates used to conduct the enzyme reaction were Proxiplate-384 (cat #: 6008280) Plus from PerkinElmer (Waltham, MA, US). TSA, an HDAC inhibitor, was purchased from Enzo Life Science (cat #BML-GR309-9090) The remainder of the reagents used to prepare the assay buffer were purchased from Sigma-Aldrich (St Louis, MO, US). Unless stated otherwise, HDAC1 and 3 assays were conducted in 50 mM Tris buffer, pH 8, 137 mM NaCl, 2.7 mM KCl, 0.01% BSA.
# (§2) IC50 determination for HDAC1 and HDAC3—Prior to adding reagents, 50 nL/well of compound were added to Proxiplates using an Echo dispenser instrument (Beckman Coulter, CA, US). After addition of compound, 2.5 μL/well of 2× enzyme solution was added and the enzyme was pre-incubated with compound for 3 hours at room temp. (˜22° C.). After the pre-incubation period, the enzyme reaction was initiated by adding 2.5 μL/well of 2× Fluor de Lys® substrate solution. The assay reaction was stopped after one hour by adding 5 μl/well of a 0.66× Developer solution containing TSA (3.2 μM). The final product of the enzyme reaction was read using a Spectramax plate reader instrument (Molecular Devices, CA, US) using a fluorescent readout (Ex 360 nm/Em 460 nm). The final enzyme concentrations in the assay buffer for HDAC1 and 3 were 6 and 1.2 nM, respectively. The final Fluor de Lys® substrate concentration in the assay buffer was 16 μM for all HDAC enzymes. IC50 values were determined using the following equation: […]
# (§3) Where Efree and Eo are the free and total amount of HDAC enzyme in the reaction mixture, n is the hill coefficient, I is the free inhibitor concentration, and IC50 is the measure of the potency equivalent to the inhibitor concentration that leads to a 50% occupancy of the total enzyme. Each data was generated in duplicate.
# HDAC3/NCor2 = HDAC3/NCor2 (Homo sapiens (Human), UniProt O15379); test: HDAC3 inhibition, Fluor de Lys fluorescent enzyme assay; format: biochemical; conditions: 3 hours pre-incubation at room temp; 1.2 nM enzyme; 16 μM Fluor de Lys substrate; duplicate
# HDAC3/NCor2, sequence (O15379 whole entry): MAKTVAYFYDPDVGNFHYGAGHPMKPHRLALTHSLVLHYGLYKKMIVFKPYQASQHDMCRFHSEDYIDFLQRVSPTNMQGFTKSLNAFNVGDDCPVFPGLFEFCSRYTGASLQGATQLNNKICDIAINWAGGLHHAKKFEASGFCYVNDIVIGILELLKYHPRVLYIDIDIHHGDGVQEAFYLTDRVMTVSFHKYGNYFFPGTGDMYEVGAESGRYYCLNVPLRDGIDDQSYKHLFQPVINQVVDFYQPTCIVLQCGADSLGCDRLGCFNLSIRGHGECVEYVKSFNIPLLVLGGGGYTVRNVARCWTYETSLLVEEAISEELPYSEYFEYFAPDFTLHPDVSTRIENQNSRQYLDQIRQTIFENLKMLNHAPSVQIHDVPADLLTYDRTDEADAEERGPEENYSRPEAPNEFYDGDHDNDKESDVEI
# HDAC3/NCor2, sequence (Q9Y618 395-489 partner): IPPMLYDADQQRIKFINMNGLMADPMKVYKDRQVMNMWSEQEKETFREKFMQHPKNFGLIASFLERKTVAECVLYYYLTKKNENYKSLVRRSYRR
# Source text: as §1, §2, §3
# Recombinant HDAC1, sequence (Q13547 whole entry): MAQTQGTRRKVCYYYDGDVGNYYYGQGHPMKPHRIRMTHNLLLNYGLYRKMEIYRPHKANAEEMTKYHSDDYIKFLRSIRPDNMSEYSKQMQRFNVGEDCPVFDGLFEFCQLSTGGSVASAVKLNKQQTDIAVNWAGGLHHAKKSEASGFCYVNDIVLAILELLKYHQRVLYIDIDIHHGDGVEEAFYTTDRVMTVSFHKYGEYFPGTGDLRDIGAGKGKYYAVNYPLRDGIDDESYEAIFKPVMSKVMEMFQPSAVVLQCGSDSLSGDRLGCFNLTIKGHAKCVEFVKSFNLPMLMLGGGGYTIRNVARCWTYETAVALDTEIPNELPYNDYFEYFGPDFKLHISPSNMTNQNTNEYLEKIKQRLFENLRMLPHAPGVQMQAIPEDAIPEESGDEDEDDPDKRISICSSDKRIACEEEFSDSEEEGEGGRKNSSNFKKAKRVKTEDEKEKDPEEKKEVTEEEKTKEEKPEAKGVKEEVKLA
Structure (SMILES),IC50 (Recombinant HDAC1) [nM],IC50 (HDAC3/NCor2) [nM]
"N=S(=O)(c1ccc(C(=O)Nc2cc(-c3ccc(F)cc3)ccc2N)cc1)c1cccc(F)c1 (centres unmarked) [Compound 216, N-[2-amino-5-(4-fluorophenyl)phenyl]-4-[(3-fluorophenyl)sulfonimidoyl]benzamide]",< 100,500 to 2000
"N=[S@@](=O)(c1ccc(C(=O)Nc2cc(-c3ccc(F)s3)ccc2N)cc1)C1CC1 (single isomer, unassigned) [Compound 133]",< 100,500 to 2000
"CS(=N)(=O)c1ccc2sc(C(=O)Nc3cc(-c4cccs4)ccc3N)cc2c1 (centres unmarked) [Compound 138, N-[2-amino-5-(2-thienyl)phenyl]-5-(methylsulfonimidoyl)benzothiophene-2-carboxamide]",< 100,500 to 2000
"N=S(=O)(c1ccc(C(=O)Nc2cc(-c3ccc(F)cc3)ccc2N)cc1)c1ccc(C(F)(F)F)nc1 (centres unmarked) [Compound 205, N-[2-amino-5-(4-fluorophenyl)phenyl]-4-[[6-(trifluoromethyl)-3-pyridyl]sulfonimidoyl]benzamide]",< 100,> 2000
"CCS(=N)(=O)c1ccc(C(=O)Nc2cc(-c3ccc(F)cc3)ccc2N)cc1 (centres unmarked) [Compound 194, N-[2-amino-5-(4-fluorophenyl)phenyl]-4-(ethylsulfonimidoyl)benzamide]",< 100,500 to 2000
"CS(=N)(=O)c1ccc(C(=O)Nc2cc(-c3cccnc3)ccc2N)cc1 (centres unmarked) [Compound 107, N-[2-amino-5-(3-pyridyl)phenyl]-4-(methylsulfonimidoyl)benzamide]",100 to 500,500 to 2000
CS(=N)(=O)Cc1ccc(C(=O)Nc2cc(-c3ccc(F)cc3)ccc2N)cn1 (centres unmarked) [Compound 201],–,500 to 2000
"N=S(=O)(c1ccc(C(=O)Nc2cc(-c3ccc(F)cc3)ccc2N)cc1)c1cnc(O)nc1 (centres unmarked) [Compound 234, N-[2-amino-5-(4-fluorophenyl)phenyl]-4-[(2-hydroxypyrimidin-5-yl)sulfonimidoyl]benzamide]",< 100,> 2000
"[2H]c1c([2H])c(-c2ccc(N)c(NC(=O)c3ccc(S(C)(=N)=O)cc3)c2)c([2H])c([2H])c1F (centres unmarked) [Compound 223, N-[2-amino-5-(2,3,5,6-tetradeutero-4-fluoro-phenyl)phenyl]-4-(methylsulfonimidoyl)benzamide]",< 100,500 to 2000
Nc1ccc(-c2ccc(F)cc2)cc1NC(=O)c1cc2cc(S3(=O)=NCCC3)ccc2s1 (centres unmarked) [Compound 204],–,500 to 2000
"Cc1ccc(-c2ccc(N)c(NC(=O)c3ccc(S(C)(=N)=O)cc3)c2)cc1 (centres unmarked) [Compound 136, N-[2-amino-5-(p-tolyl)phenyl]-4-(methylsulfonimidoyl)benzamide]",< 100,> 2000
"N=[S@](=O)(c1ccc(C(=O)Nc2cc(-c3ccc(F)cc3)ccc2N)cc1)c1ccccn1 (single isomer, unassigned) [Compound 220]",< 100,500 to 2000
"N=S(=O)(c1ccc(C(=O)Nc2cc(-c3cccnc3)ccc2N)cc1)C1CC1 (centres unmarked) [Compound 116, N-[2-amino-5-(3-pyridyl)phenyl]-4-(cyclopropylsulfonimidoyl)benzamide]",< 100,500 to 2000
"CS(=N)(=O)c1ncc(C(=O)Nc2cc(-c3ccc(F)cc3)ccc2N)s1 (centres unmarked) [Compound 164, N-[2-amino-5-(4-fluorophenyl)phenyl]-2-(methylsulfonimidoyl)thiazole-5-carboxamide]",100 to 500,500 to 2000
"N=S(=O)(c1ccc(C(=O)Nc2cc(-c3ccc(F)cc3)ccc2N)cc1)c1cncc(Cl)c1 (centres unmarked) [Compound 245, N-(4-amino-4′-fluoro-[1,1′-biphenyl]-3-yl)-4-(5-chloropyridine-3-sulfonimidoyl)benzamide]",< 100,500 to 2000
"COc1ncc(S(=N)(=O)c2ccc(C(=O)Nc3cc(-c4ccc(F)cc4)ccc3N)cc2)cn1 (centres unmarked) [Compound 218, N-[2-amino-5-(4-fluorophenyl)phenyl]-4-[(2-methoxypyrimidin-5-yl)sulfonimidoyl]benzamide]",< 100,500 to 2000
"Cc1nc[nH]c1S(=N)(=O)c1ccc(C(=O)Nc2cc(-c3ccc(F)cc3)ccc2N)cc1 (centres unmarked) [Compound 209, N-[2-amino-5-(4-fluorophenyl)phenyl]-4-[(4-methyl-1H-imidazol-5-yl)sulfonimidoyl]benzamide]",< 100,100 to 500
"CS(=N)(=O)c1ccc2oc(C(=O)Nc3cc(-c4cccs4)ccc3N)cc2c1 (centres unmarked) [Compound 143, N-[2-amino-5-(2-thienyl)phenyl]-5-(methylsulfonimidoyl)benzofuran-2-carboxamide]",< 100,500 to 2000
"CS(=N)(=O)c1ccc(C(=O)Nc2cc(-c3ccc(F)s3)ccc2N)cc1 (centres unmarked) [Compound 109, N-[2-amino-5-(5-fluoro-2-thienyl)phenyl]-4-(methylsulfonimidoyl)benzamide]",< 100,500 to 2000
"CC(C)c1cncc(S(=N)(=O)c2ccc(C(=O)Nc3cc(-c4ccc(F)cc4)ccc3N)cc2)c1 (centres unmarked) [Compound 226, N-[2-amino-5-(4-fluorophenyl)phenyl]-4-[(5-isopropyl-3-pyridyl)sulfonimidoyl]benzamide]",< 100,500 to 2000
"C[S@](=N)(=O)c1ccc(C(=O)Nc2cc(-c3ccc(F)s3)ccc2N)cc1 [Compound 149, (S)—N-[2-amino-5-(5-fluoro-2-thienyl)phenyl]-4-(methylsulfonimidoyl)benzamide]",< 100,500 to 2000
"CCN=S(C)(=O)c1ccc(C(=O)Nc2cc(-c3cccs3)ccc2N)cc1 (centres unmarked) [Compound 141, N-[2-amino-5-(2-thienyl)phenyl]-4-(N-ethyl-S-methyl-sulfonimidoyl)benzamide]",< 100,500 to 2000
"CS(=N)(=O)c1ccc(C(=O)Nc2cc(-c3ccc(F)cc3)ccc2N)nn1 (centres unmarked) [Compound 159, N-[2-amino-5-(4-fluorophenyl)phenyl]-6-(methylsulfonimidoyl)pyridazine-3-carboxamide]",< 100,100 to 500
"Nc1ccc(-c2cccs2)cc1NC(=O)c1ccc(S2(=O)=NCCC2)cc1 (centres unmarked) [Compound 126, N-[2-amino-5-(2-thienyl)phenyl]-4-(1-oxo-4,5-dihydro-3H-isothiazol-1-yl)benzamide]",–,500 to 2000
"Nc1ccc(-c2ccc(F)s2)cc1NC(=O)c1ccc(S2(=O)=NCCC2)cc1 (centres unmarked) [Compound 160, N-[2-amino-5-(5-fluoro-2-thienyl)phenyl]-4-(1-oxo-4,5-dihydro-3H-isothiazol-1-yl)benzamide]",–,500 to 2000
"Nc1ccc(-c2ccc(F)cc2)cc1NC(=O)c1ccc(S2(=O)=NCCC2)cc1 (centres unmarked) [Compound 154, N-[2-amino-5-(4-fluorophenyl)phenyl]-4-(1-oxo-4,5-dihydro-3H-isothiazol-1-yl)benzamide]",–,500 to 2000
N=S(=O)(c1ccc(C(=O)Nc2cc(-c3ccc(F)cc3)ccc2N)cc1)c1ccc(Cl)cn1 (centres unmarked) [Compound 213],–,500 to 2000
"Nc1ccc(-c2ccc(F)cc2)cc1NC(=O)c1ccc(S2(=O)=NCCC2)nc1 (centres unmarked) [Compound 178, N-[2-amino-5-(4-fluorophenyl)phenyl]-6-(1-oxo-4,5-dihydro-3H-isothiazol-1-yl)pyridine-3-carboxamide]",–,500 to 2000
"Nc1ccc(-c2ccc(F)cc2)cc1NC(=O)c1ccc(S2(=O)=NCCCC2)cc1 (centres unmarked) [Compound 243, N-[2-amino-5-(4-fluorophenyl)phenyl]-4-(1-oxo-1thia-2-azacyclohexen-1-yl)benzamide]",–,500 to 2000
